Experimental data as given in the NIST ThermoML archive (doi:10.1016/j.jct.2017.11.004).
“And” between values parts separate entries of the source, which are not always exact repeats. Identical values can stand only once. ± gives the expanded uncertainty stated by the source.

Details: Crystal, Rate of evaporation

[Ar] [argon]
Details	vapor or sublimation pressure
27.51 K	1.95e-09 ± 3.3e-10 kPa and 1.73e-09 ± 4.6e-10 kPa
28.01 K	3.29e-09 ± 4.9e-10 kPa and 3.3e-09 ± 5.6e-10 kPa
28.5 K	5.92e-09 ± 1.3e-09 kPa
28.51 K	5.83e-09 ± 6.1e-10 kPa
29 K	1.028e-08 ± 1.2e-09 kPa
29.01 K	1.035e-08 ± 1.1e-09 kPa
29.5 K	1.808e-08 ± 1.7e-09 kPa
29.51 K	1.812e-08 ± 1.6e-09 kPa
30 K	3.105e-08 ± 4.4e-09 kPa and 3.116e-08 ± 3.5e-09 kPa
30.49 K	5.189e-08 ± 5.4e-09 kPa
30.5 K	5.157e-08 ± 6.5e-09 kPa
30.99 K	8.27e-08 ± 1.2e-08 kPa
31 K	8.469e-08 ± 2.1e-08 kPa

O=C=O [carbon dioxide]
Details	vapor or sublimation pressure
80.03 K	7.21e-09 ± 8.9e-10 kPa
80.53 K	8.98e-09 ± 8.5e-10 kPa and 8.61e-09 ± 1e-09 kPa
81.03 K	1.11e-08 ± 1.3e-09 kPa and 1.252e-08 ± 1.1e-09 kPa
81.52 K	1.416e-08 ± 1.6e-09 kPa and 1.56e-08 ± 1.4e-09 kPa
82.02 K	1.819e-08 ± 2.1e-09 kPa and 1.911e-08 ± 1.6e-09 kPa
82.52 K	2.353e-08 ± 2.7e-09 kPa and 2.519e-08 ± 2.1e-09 kPa
83.02 K	2.981e-08 ± 3.3e-09 kPa and 3.328e-08 ± 2.8e-09 kPa
83.53 K	3.967e-08 ± 4.4e-09 kPa and 4.446e-08 ± 3.7e-09 kPa
84.03 K	5.272e-08 ± 1e-08 kPa and 5.947e-08 ± 7.3e-09 kPa
84.53 K	6.988e-08 ± 7.7e-09 kPa and 6.758e-08 ± 5.5e-09 kPa

[Kr] [krypton]
Details	vapor or sublimation pressure
38.5 K	1.68e-09 ± 2.9e-10 kPa and 1.86e-09 ± 3e-10 kPa
39 K	2.84e-09 ± 3.7e-10 kPa and 2.68e-09 ± 3.6e-10 kPa
39.49 K	4.01e-09 ± 4.7e-10 kPa
39.5 K	4.34e-09 ± 4.9e-10 kPa
39.99 K	6.3e-09 ± 6.4e-10 kPa
40 K	6.56e-09 ± 6.6e-10 kPa
40.49 K	9.97e-09 ± 9.3e-10 kPa and 9.68e-09 ± 9.1e-10 kPa
41 K	1.527e-08 ± 1.4e-09 kPa and 1.475e-08 ± 1.4e-09 kPa
41.5 K	2.312e-08 ± 2e-09 kPa and 2.262e-08 ± 2e-09 kPa
42 K	3.529e-08 ± 3.2e-09 kPa and 3.422e-08 ± 2.8e-09 kPa
42.5 K	5.406e-08 ± 4.3e-09 kPa
42.51 K	5.092e-08 ± 4.1e-09 kPa

[Ne] [neon]
Details	vapor or sublimation pressure [kPa]
8.004 K	2.98e-08 ± 9.8e-09
8.251 K	6.87e-08 ± 1.8e-08
8.502 K	1.633e-07 ± 4.3e-08
8.749 K	3.617e-07 ± 1.3e-07
8.792 K	4.482e-07 ± 1.1e-07
8.996 K	9.17e-07 ± 7.4e-08
9.046 K	9.212e-07 ± 7.3e-08
9.251 K	1.832e-06 ± 3.5e-07
9.468 K	2.529e-06 ± 1.4e-06
9.518 K	3.574e-06 ± 1.3e-06
9.727 K	5.097e-06 ± 1.3e-06
9.776 K	6.564e-06 ± 2.2e-06

N#N [nitrogen]
Details	vapor or sublimation pressure [kPa]
23.5 K	1.9e-10 ± 1.9e-10
23.51 K	1.5e-10 ± 1.8e-10
24 K	4e-10 ± 2.9e-10
24.5 K	8.2e-10 ± 5.3e-10
25 K	1.66e-09 ± 1e-09
25.49 K	3.24e-09 ± 2e-09
25.99 K	6.63e-09 ± 4e-09
26.48 K	1.287e-08 ± 7.8e-09
26.99 K	2.45e-08 ± 1.5e-08
27.48 K	3.89e-08 ± 2.4e-08

O=O [oxygen]
Details	vapor or sublimation pressure
28.99 K	1.81e-09 ± 7.7e-10 kPa
29.48 K	5.02e-09 ± 2.1e-09 kPa and 3.06e-09 ± 1.3e-09 kPa
29.98 K	5.64e-09 ± 2.3e-09 kPa
29.99 K	8.75e-09 ± 3.6e-09 kPa
30.47 K	1.01e-08 ± 4.1e-09 kPa and 1.531e-08 ± 6.2e-09 kPa
30.98 K	1.855e-08 ± 7.6e-09 kPa and 2.698e-08 ± 1.1e-08 kPa
31.48 K	3.339e-08 ± 1.4e-08 kPa and 4.84e-08 ± 2e-08 kPa
31.77 K	8.494e-08 ± 3.5e-08 kPa
31.98 K	5.894e-08 ± 2.4e-08 kPa
32.48 K	1.034e-07 ± 4.2e-08 kPa and 1.469e-07 ± 6e-08 kPa
32.98 K	1.632e-07 ± 6.6e-08 kPa

O [water]
Details	vapor or sublimation pressure
154.97 K	3.289e-08 ± 7.3e-09 kPa and 2.922e-08 ± 6.5e-09 kPa
155.96 K	4.124e-08 ± 8.6e-09 kPa
156.96 K	5.337e-08 ± 1.3e-08 kPa
156.97 K	6.144e-08 ± 1.3e-08 kPa
157.96 K	7.108e-08 ± 1.5e-08 kPa
158.97 K	9.378e-08 ± 2e-08 kPa
159.96 K	1.174e-07 ± 2.5e-08 kPa
159.98 K	1.185e-07 ± 2.5e-08 kPa
160.47 K	1.414e-07 ± 2.9e-08 kPa
160.96 K	1.421e-07 ± 3.3e-08 kPa
160.97 K	1.636e-07 ± 3.4e-08 kPa
161.47 K	1.872e-07 ± 3.9e-08 kPa

[Xe] [xenon]
Details	vapor or sublimation pressure
50.01 K	4.67e-10 ± 1.9e-10 kPa and 4.85e-10 ± 1.9e-10 kPa
51.02 K	1.113e-09 ± 2.4e-10 kPa and 1.049e-09 ± 2.4e-10 kPa
52.02 K	2.544e-09 ± 3.5e-10 kPa
52.52 K	2.776e-09 ± 3.7e-10 kPa and 3.083e-09 ± 3.9e-10 kPa
53.02 K	4.226e-09 ± 4.8e-10 kPa and 4.645e-09 ± 5.1e-10 kPa
53.52 K	5.796e-09 ± 6e-10 kPa and 5.947e-09 ± 6.2e-10 kPa
54.02 K	8.078e-09 ± 7.8e-10 kPa and 8.286e-09 ± 8e-10 kPa
54.52 K	1.126e-08 ± 1e-09 kPa and 1.15e-08 ± 1e-09 kPa
55.02 K	1.528e-08 ± 1.3e-09 kPa and 1.544e-08 ± 1.4e-09 kPa
55.52 K	2.113e-08 ± 1.8e-09 kPa
56.02 K	2.907e-08 ± 2.4e-09 kPa and 2.973e-08 ± 2.5e-09 kPa
56.52 K	3.938e-08 ± 3.2e-09 kPa
56.53 K	4.024e-08 ± 3.3e-09 kPa
57.03 K	5.416e-08 ± 4.4e-09 kPa and 5.32e-08 ± 4.3e-09 kPa
